In patent US20130243847A1, “ACTIVATED CREATININE AND PRECURSORS THEREOF AS ANTIBACTERIAL AGENTS, COMPOSITIONS AND PRODUCTS CONTAINING SUCH AGENTS AND USE THEREOF” (BOARD OF REGENTS OF THE UNIVERSITY OF NEBRASKA, priority 2010, published 2013):
“Also recorded” adds a separate entry of the source.

Assays:
Format in all cases: cell-based
[1] = tested on: Bacillus cereus laboratory strain; experiment: Disc diffusion assay, CEE vs gentamicin; conditions: B. cereus laboratory strain; 50 mg anhydrous topical cream with 28% by weight agent
Protocol: (§1) This testing involved the use of 50 mg of an anhydrous topical cream containing the antibacterial agent of the invention in an amount of 28% by weight and 10 μg of gentamicin, impregnated into a standard commercially available disc (Remel, Lenoxa Kans.).

[2] = tested on: Staphylococcus aureus laboratory strain 29213; experiment: Disc diffusion assay, CEE vs gentamicin; conditions: S. aureus laboratory strain 29213; 50 mg anhydrous topical cream with 28% by weight agent; gentamicin 10 μg disc
Protocol: as §1

[3] = tested on: Acinetobacter baumannii high level resistance (HLR); experiment: Disc diffusion assay, CEE vs gentamicin; conditions: A. baumannii HLR; 50 mg anhydrous topical cream with 28% by weight agent; gentamicin 10 μg disc
Protocol: as §1

[4] = tested on: Staphylococcus epidermidis laboratory strain; experiment: Disc diffusion assay, CEE vs gentamicin; conditions: S. epidermidis laboratory strain; 50 mg anhydrous topical cream with 28% by weight agent
Protocol: as §1

[5] = tested on: Micrococcus luteus laboratory isolate; experiment: Disc diffusion assay, CEE vs gentamicin; conditions: M. luteus laboratory isolate; 50 mg anhydrous topical cream with 28% by weight agent
Protocol: as §1

[6] = tested on: Staphylococcus aureus UMSA-1 isolate; experiment: Disc diffusion assay, CEE vs gentamicin; conditions: S. aureus UMSA-1 isolate; 50 mg anhydrous topical cream with 28% by weight agent
Protocol: as §1

[7] = tested on: Candida albicans laboratory strain 24433; experiment: Disc diffusion assay, CEE vs gentamicin; conditions: C. albicans laboratory strain 24433; 50 mg anhydrous topical cream with 28% by weight agent; gentamicin 10 μg disc
Protocol: as §1

[8] = tested on: Pseudomonas fluorescens laboratory strain; experiment: Disc diffusion assay, CEE vs gentamicin; conditions: P. fluorescens laboratory strain; 50 mg anhydrous topical cream with 28% by weight agent
Protocol: as §1

[9] = tested on: Brevibacterium linens ATCC 9175; experiment: Disc diffusion assay, CEE vs gentamicin; conditions: B. linens ATCC 9175; 50 mg anhydrous topical cream with 28% by weight agent
Protocol: as §1

[10] = tested on: Staphylococcus aureus methicillin resistant (MRSA); experiment: Disc diffusion assay, CEE vs gentamicin; conditions: S. aureus MRSA; 50 mg anhydrous topical cream with 28% by weight agent; gentamicin 10 μg disc
Protocol: as §1

[11] = tested on: Rhodotorula sp. laboratory isolate; experiment: Disc diffusion assay, CEE vs gentamicin; conditions: 50 mg anhydrous topical cream with 28% by weight agent
Protocol: as §1

[12] = tested on: Enterococcus faecalis laboratory strain 29212; experiment: Disc diffusion assay, CEE vs gentamicin; conditions: E. faecalis laboratory strain 29212; 50 mg anhydrous topical cream with 28% by weight agent; gentamicin 10 μg disc
Protocol: as §1

[13] = tested on: Escherichia coli laboratory strain 35150; experiment: Disc diffusion assay, CEE vs gentamicin; conditions: E. coli laboratory strain 35150; 50 mg anhydrous topical cream with 28% by weight agent; gentamicin 10 μg disc
Protocol: as §1

[14] = tested on: Saccharomyces sp. isolate from baker's yeast; experiment: Disc diffusion assay, CEE vs gentamicin; conditions: 50 mg anhydrous topical cream with 28% by weight agent
Protocol: as §1

[15] = tested on: Enterococcus faecium vancomycin resistant (VRE); experiment: Disc diffusion assay, CEE vs gentamicin; conditions: E. faecium VRE; 50 mg anhydrous topical cream with 28% by weight agent; gentamicin 10 μg disc
Protocol: as §1

[16] = tested on: Bacillus subtilis laboratory strain; experiment: Disc diffusion assay, CEE vs gentamicin; conditions: B. subtilis laboratory strain; 50 mg anhydrous topical cream with 28% by weight agent
Protocol: as §1

M. luteus = experiment: Growth in broth with CEE at different concentrations (Example 3, FIG. 2B); conditions: broth culture, absorbance over time
Protocol: The CEE precursor of antibacterially-activated CRN was diluted at different concentrations into Lederberg's broth (LB), which was then inoculated to 10^4/mL with S. aureus. The cultures were incubated in capped plastic tubes at 37° C. and aerated by tumbling using a tube rotating device.
A similar experiment was conducted with the same precursor of antibacterially-activated CRN and tested on M. luteus.

Rhodotorula sp. = experiment: Selective growth on BHI agar, mixture of three organisms (Example 12, FIG. 11C)
Protocol: (§2) Colonies of Micrococcus sp., Rhodotorula sp. and Saccharomyces sp. grown on brain heart infusion agar (BHI) were suspended in PBS to 0.30 OD, 580 nm. An equal volume of the three (3) organisms were combined and the mixture streaked onto plates containing BHI agar alone or BHI agar supplemented with a precursor of antibacterially-activated CRN, CEE, and incubated 48 hours at 37° C.

Micrococcus sp. = experiment: as above
Protocol: as §2

Saccharomyces sp. = experiment: as above
Protocol: as §2

S. aureus UAMS-1 = experiment: Bactericidal test in overnight culture (Example 5, FIG. 4); conditions: 200 mM
Protocol: S. aureus UAMS-1 was started from a static overnight, grown for 3 hours, then 0.2 mL was added to 3 different 50 mL cultures for control, CRN and CEE. These were shaken 30 min. at 37° C., an aliquot was removed prior to the addition of a precursor of antibacterially-activated CRN, CEE, or antibacterially-activated CRN, and the starting titer was determined. Powdered CEE or crystal CRN was added directly to the 50 mL cultures to a final concentration of 200 mM. The cultures were shaken overnight and the absorbance (A) and colony forming units (cfu) were determined.

[17] = 100 mM and 200 mM CEE in BHI agar, 48 hours, 37° C.
[18] = 300 and 400 mM CEE in BHI agar (data not shown)

With CCOC(=O)CN(C)C(=N)N [CEE, creatine ethyl ester] the “Zone of Inhibition” value [1] was 22 mm, the “Zone of Inhibition” value [2] was 26 mm and the “Zone of Inhibition” value [3] was 16 mm. For the same compound, the “Zone of Inhibition” value [4] was 27 mm, the “Zone of Inhibition” value [5] was 22 mm and the “Zone of Inhibition” value [6] was 24 mm. For the same compound, the “Zone of Inhibition” value [7] was 0 mm, the “Zone of Inhibition” value [8] was 18 mm and the “Zone of Inhibition” value [9] was 40 mm. The “Zone of Inhibition” value [10] was 27 mm, the “Zone of Inhibition” value [11] was 0 mm and the “Zone of Inhibition” value [12] was 19 mm. The “Zone of Inhibition” value [13] was 15 mm, the “Zone of Inhibition” value [14] was 0 mm and the “Zone of Inhibition” value [15] was 18 mm. The “Zone of Inhibition” value [16] was 20 mm, the “concentration that inhibited growth of M. luteus” value (M. luteus) was “approximately 1 mM” and the “growth of Rhodotorula” value (Rhodotorula sp.; [17]) was “enhanced”. The “growth of Rhodotorula” value (Rhodotorula sp.; [18]) was “did not affect the growth”, the “growth of Micrococcus” value (Micrococcus sp.; 100 mM CEE in BHI agar, 48 hours, 37° C.) was “greatly retarded” and the “growth of Micrococcus” value (Micrococcus sp.; 200 mM CEE in BHI agar, 48 hours, 37° C.) was “completely inhibited”. For the same compound, the “growth of Micrococcus” value (Micrococcus sp.; [18]) was “inhibited the growth of Micrococcus”, the “growth of Saccharomyces” value (Saccharomyces sp.; [17]) was “enhanced” and the “growth of Saccharomyces” value (Saccharomyces sp.; [18]) was “did not affect the growth”. For the same compound, the “colonies from 1 mL of treated culture plated on solid media” value (S. aureus UAMS-1; overnight culture, 48 hours incubation of plates, control 3×10^9 per mL) was “no colonies” and the “bactericidal action for S. aureus” value (S. aureus UAMS-1; starting at about 1×10^3 organisms per mL) was “bacteriocidal; also recorded: bactericidal”.
